From Sander's compilation of Henry's law constants (doi:10.1021/je00012a017) come the findings set out here.

The nature of one series: Henry solubility constant Hcp at 302 K (mol/(m3 Pa)). The note with it: reference: Hansen et al. (1993).
On to `c1ccccc1` [benzene], for which the “Henry solubility constant Hcp at 302 K” value came out at 0.0015.

For the molecule `Cc1ccccc1` [methylbenzene], the “Henry solubility constant Hcp at 302 K” value came out at 0.0014.

Another series is described as follows: Henry solubility constant Hcp at 301 K (mol/(m3 Pa)). The settings on record: reference: Hansen et al. (1993).
Take `C1CCCCC1` [cyclohexane]: the “Henry solubility constant Hcp at 301 K” value amounted to 6e-05.

Another series is described as follows: Henry solubility constant Hcp at 298.15 K (mol/(m3 Pa)). The note with it: reference: Hansen et al. (1993).
As to `CC(Cl)(Cl)Cl` [1,1,1-trichloroethane], the “Henry solubility constant Hcp” value is 0.00059.

Turning to `ClCC(Cl)Cl` [1,1,2-trichloroethane], the “Henry solubility constant Hcp” value was 0.012.

Consider `Cc1ccc(C)c(C)c1` [1,2,4-trimethylbenzene], for which the “Henry solubility constant Hcp” value was determined as 0.0015.

As to `Cc1ccc(C)cc1` [1,4-dimethylbenzene], the “Henry solubility constant Hcp” value was 0.0012.

For the molecule `CCCCC(C)C` [2-methylhexane], the “Henry solubility constant Hcp” value was found to be 1.9e-05.

On to `Cc1ccc2ccccc2c1` [2-methylnaphthalene], for which the “Henry solubility constant Hcp” value amounted to 5e-05.

With `CC(C)c1ccccc1` [(2-propyl)-benzene], the “Henry solubility constant Hcp” value was 0.00087.

As for `Brc1ccccc1` [bromobenzene], the “Henry solubility constant Hcp” value came to 0.0053.

For `C1CCCC1` [cyclopentane], the “Henry solubility constant Hcp” value came to 6.5e-05.

In the case of `CCCCCCC` [heptane], the “Henry solubility constant Hcp” value is 1.2e-05.

With `CC1CCCCC1` [methylcyclohexane], the “Henry solubility constant Hcp” value was 9.6e-05.

For the molecule `CCCCCCCC` [octane], the “Henry solubility constant Hcp” value was found to be 3e-05.

`ClC(Cl)(Cl)Cl` [tetrachloromethane]: the “Henry solubility constant Hcp” value amounted to 0.00033.
